Test results from patent US20210315893A1 (Galapagos NV, priority 2017, published 2021).

Tests used:
S1PR2 = biological target: T1, S1PR2 (Homo sapiens, UniProt O95136); test: S1PR2 binding assay (competition with radioactively labeled S1P, SpA); details: membranes from stable cell line over expressing S1PR2, SpA beads; read-out: S1P2 EC50 (nM), S1PR2 binding EC50
T1 construct: expressed in transfected cells
In short: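 Competition with [3H]S1P for membranes from a stable S1PR2-overexpressing cell line, 20 μg/well, captured on PVT-WGA SPA beads, in 20 mM Tris pH 7.5, 10 mM MgCl2, 100 mM NaCl, 0.4% fatty-acid-free BSA, 1 mM Na3VO4. 2 h at room temperature, then centrifugation and scintillation counting.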

[1] = biological target: T2, human GPCR sphingosine 1-phosphate receptor 1 (Homo sapiens, UniProt P21453); test: S1PR1 selectivity Ca2+ flux assay (antagonist readout); type: cell-based; details: antagonist readout, CHO cells overexpressing human S1PR1 and Gq, S1P at EC80 (6 nM); read-out: S1P1 EC50 (nM), S1P1 antagonist EC50
T2 construct: host or cells: CHO
Protocol: (§1) 50 μL of Chinese hamster ovary (CHO) cells stably overexpressing human S1PR1 or S1PR5 are seeded in 384 well sterile microplates (7,500 cells/well or 10,000 cells/well respectively) and are incubated overnight at 37° C. under 5% CO2. Cells are subsequently washed twice with 25 μL/well of starvation medium (F-12 Ham's medium containing 0.1% fatty acid free bovine serum albumin (FAF BSA)). After one h starvation at 37° C., 5% CO2, cells are loaded with 25 μL of Fluo 8 dye diluted in Hank's balanced salt solution (HBSS) with 20 mM Hepes complemented with 5 mM of probenecid following the recommendations of the manufacturer (one h at 37° C., 5% CO2). Dilution series of compounds are prepared in HBSS buffer with 20 mM Hepes and 0.1% BSA (FAF). 10 μL of diluted compound is added to the cells using the FDSS/pCELL and intracellular calcium changes are measured immediately by recording fluorescence during 3 min (agonist readout). The ratio of maximal signal over background before compound injection is used to determine compound response.
After an incubation of 15 min at 37° C., following the agonist readout, the plates are transferred to the FDSS/pCELL reader. […] The ratio of maximal signal over background before S1P injection was used to determine the inhibitory effect ofthe compound.
(§2) Raw data obtained in each experiment (ratio of maximal signal over background for calcium mobilization assays) were normalized in percentage of activation (agonist mode) or inhibition (antagonist mode) using positive and negative experiment controls. Each individual plate quality was assessed by evaluation of Z′ factor calculated with raw data using the following equation
(§3) Y=bottom+(top−bottom)/(1+(10^(Log IC50−X)*Hillslope)) where X is the logarithm of the concentration of the compound

HFL-1 cells [2] = test: IL8 assay in the presence of Human Serum Albumin; details: HFL1, read-out: HSA IL8 EC50
[3] = biological target: T3, human GPCR sphingosine 1-phosphate receptor 2 (Homo sapiens, UniProt O95136); test: S1PR2 antagonist Ca2+ flux assay; type: cell-based; details: antagonist mode, CHO-S1PR2 cells, S1P at EC80, Ca2+ fluorescence; read-out: S1P2 EC50 (nM), S1P2 antagonist EC50
T3 construct: host or cells: CHO
In short: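 CHO cells stably expressing human S1PR2, serum-starved 1 h, Fluo8-loaded; compound-evoked Ca2+ fluorescence read 3 min (agonist mode), then after 15 min S1P at EC80 added and read 3 min (antagonist mode). Max/baseline fluorescence ratios normalised to vehicle and S1P EC100 or EC50 controls; EC50 derived.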

HFL-1 cells [4] = test: IL-8 production assay (S1P induced IL-8); type: cell-based; details: Homo sapiens, HFL1; S1P (1 μM) induced IL-8 in HFL-1 cells, starvation medium without HSA; read-out: IL8 EC50
In short: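 HFL-1 human fetal lung fibroblasts were starved in F12K/1% FBS, then given compound for 1 h (10-point, 1/3 dilution, 30 μM top, 0.3% DMSO final). S1P was added at 1 μM final for 16–24 h at 37 °C, and secreted IL-8 in supernatant quantified by ELISA.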

[5] = biological target: T4, human GPCR sphingosine 1-phosphate receptor 5 (Homo sapiens, UniProt Q9H228); test: S1PR5 selectivity Ca2+ flux assay (antagonist readout); type: cell-based; details: CHO cells overexpressing human S1PR5 and Gq, agonist at EC80 (20 nM), read-out: S1P5 EC50 (nM), S1P5 antagonist EC50
T4 construct: host or cells: CHO
Text: To evaluate the selectivity of the compounds for S1PR2 over S1PR1 and S1PR5, asimilar assay set upas described above for theS1PR2 calcium flux assays waspeformed: CHO cells stably overexpressing human GPCR sphingosine 1-phosphate receptor 1 and Gq protein (Euroscreen, FAST-0197A) or overexpressing human GPCR sphingosine 1-phosphate receptorS5 and Gq protein were used (Perkin Elmer, ES-593-A). In case of the S1PR5 assay triggering was done with an SPR5 specific agonist instead of with S1P (Hobson et al., 2015).
as §1
After an incubation of 15 min at 37° C., following the agonist readout, the plates are transferred to the FDSS/pCELL reader. Cells are stimulated with 10 μL of EC80 concentration of S1P (6 nM for S1P1 and 20 nM for S1P5) and intracellular calcium changes are measured immediately by recording fluorescence during three min (antagonist readout). The ratio of maximal signal over background before S1P injection was used to determine the inhibitory effect ofthe compound.
as §2, §3

T2 sequence (P21453 whole entry): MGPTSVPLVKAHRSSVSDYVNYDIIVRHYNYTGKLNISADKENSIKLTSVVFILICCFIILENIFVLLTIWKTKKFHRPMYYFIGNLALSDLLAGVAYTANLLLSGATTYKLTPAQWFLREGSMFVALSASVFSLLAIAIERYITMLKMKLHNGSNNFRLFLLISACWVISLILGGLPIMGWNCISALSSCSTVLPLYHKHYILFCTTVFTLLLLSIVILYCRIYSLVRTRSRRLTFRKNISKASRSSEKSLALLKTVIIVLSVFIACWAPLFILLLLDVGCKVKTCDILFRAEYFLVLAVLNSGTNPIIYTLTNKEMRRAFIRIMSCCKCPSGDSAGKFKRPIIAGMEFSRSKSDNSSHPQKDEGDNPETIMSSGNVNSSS
T4 sequence (Q9H228 whole entry): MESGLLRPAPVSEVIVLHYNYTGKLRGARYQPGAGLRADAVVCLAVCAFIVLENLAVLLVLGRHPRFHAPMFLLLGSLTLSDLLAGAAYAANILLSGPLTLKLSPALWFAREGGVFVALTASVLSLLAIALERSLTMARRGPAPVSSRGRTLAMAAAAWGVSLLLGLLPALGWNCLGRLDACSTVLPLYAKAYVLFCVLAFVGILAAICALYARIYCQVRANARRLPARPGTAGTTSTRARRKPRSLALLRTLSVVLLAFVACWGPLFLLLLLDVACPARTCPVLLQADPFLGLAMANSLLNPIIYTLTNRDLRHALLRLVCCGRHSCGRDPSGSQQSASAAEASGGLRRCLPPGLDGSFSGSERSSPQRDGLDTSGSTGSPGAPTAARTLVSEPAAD
T3 sequence (O95136 whole entry): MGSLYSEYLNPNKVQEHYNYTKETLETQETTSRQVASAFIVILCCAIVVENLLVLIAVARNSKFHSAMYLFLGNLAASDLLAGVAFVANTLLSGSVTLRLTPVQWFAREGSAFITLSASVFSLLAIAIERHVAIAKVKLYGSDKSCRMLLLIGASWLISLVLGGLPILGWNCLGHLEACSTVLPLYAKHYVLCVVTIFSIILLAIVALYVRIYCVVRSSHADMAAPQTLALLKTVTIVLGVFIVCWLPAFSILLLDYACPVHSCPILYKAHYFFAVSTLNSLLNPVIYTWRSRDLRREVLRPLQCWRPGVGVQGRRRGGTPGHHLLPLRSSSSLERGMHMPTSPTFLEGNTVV
T1 sequence (O95136 whole entry): as above

| EC50 (S1PR2) | EC50 [1] | EC50 (HFL-1 cells [2]) | EC50 [3] | EC50 (HFL-1 cells [4]) | EC50 [5] | SMILES |
| --- | --- | --- | --- | --- | --- | --- |
| 565 nM | 4710 nM | 10 µM | 218 nM | 0.836 µM | 4790 nM | O=c1c2ccccc2c(Cc2nc3cc(Cl)c(OC(F)(F)F)cc3[nH]2)nn1C1CC1 [Compound 25, 4-[[5-chloro-6-(trifluoromethoxy)-1H-benzimidazol-2-yl]methyl]-2-cyclopropyl-phthalazin-1-one] |
| – | ≥ 19800 nM | 0.391 µM | – | 0.00996 µM | 4380 nM | O=C(O)Cn1nc(Cc2cn3cc(OCC4CC4)c(Cl)cc3n2)c2ccccc2c1=O [Compound 82, 2-[4-[[7-chloro-6-(cyclopropylmethoxy)imidazo[1,2-a]pyridin-2-yl]methyl]-1-oxo-phthalazin-2-yl]acetic acid] |
| – | ≥ 19800 nM | 0.41 µM | – | 0.0298 µM | 19800 nM | CC(C)(C(=O)O)c1nn(Cc2cn3cc(OCC4CC4)c(Cl)cc3n2)c2ccccc2c1=O [Compound 88, 2-[1-[[7-chloro-6-(cyclopropylmethoxy)imidazo[1,2-a]pyridin-2-yl]methyl]-4-oxo-cinnolin-3-yl]-2-methyl-propanoic acid] |
| – | ≥ 19800 nM | 0.0645 µM | – | 0.0057 µM | 6610 nM | O=C(O)Cc1nn(Cc2cn3cc(OCC4CC4)c(Cl)cc3n2)c2ccccc2c1=O [Compound 89, 2-[1-[[7-chloro-6-(cyclopropylmethoxy)imidazo[1,2-a]pyridin-2-yl]methyl]-4-oxo-cinnolin-3-yl]acetic acid] |
| – | ≥ 19800 nM | 0.267 µM | – | 0.105 µM | 19800 nM | COC(C(=O)O)c1nn(Cc2cn3cc(OCC4CC4)c(Cl)cc3n2)c2ccccc2c1=O (stereo not shown) [Compound 94, 2-[1-[[7-chloro-6-(cyclopropylmethoxy)imidazo[1,2-a]pyridin-2-yl]methyl]-4-oxo-cinnolin-3-yl]-2-methoxy-acetic acid] |
| – | ≥ 19800 nM | 0.425 µM | – | 0.03 µM | 19800 nM | O=C(O)C1(c2nn(Cc3cn4cc(OCC5CC5)c(Cl)cc4n3)c3ccccc3c2=O)CC1 [Compound 96, 1-[1-[[7-chloro-6-(cyclopropylmethoxy)imidazo[1,2-a]pyridin-2-yl]methyl]-4-oxo-cinnolin-3-yl]cyclopropanecarboxylic acid] |
| – | ≥ 19800 nM | 0.0269 µM | – | 0.00569 µM | 19800 nM | CCC(C(=O)O)c1nn(Cc2cn3cc(OCC4CC4)c(Cl)cc3n2)c2ccccc2c1=O (stereo not shown) [Compound 98, 2-[1-[[7-chloro-6-(cyclopropylmethoxy)imidazo[1,2-a]pyridin-2-yl]methyl]-4-oxo-cinnolin-3-yl]butanoic acid] |
| – | ≥ 19900 nM | 1.67 µM | – | 0.0324 µM | 627 nM | O=C(O)Cn1nc(Cn2cc3cc(OCC4CC4)c(Cl)cc3n2)c2ccccc2c1=O [Compound 114, 2-[4-[[6-chloro-5-(cyclopropylmethoxy)indazol-2-yl]methyl]-1-oxo-phthalazin-2-yl]acetic acid] |
| – | ≥ 19800 nM | 0.0952 µM | – | 0.0255 µM | 19800 nM | O=C(O)Cn1nc(Cc2nc3cc(Cl)c(OCC(F)F)cc3[nH]2)c2ccccc2c1=O [Compound 118, 2-[4-[[5-chloro-6-(2,2-difluoroethoxy)-1H-benzimidazol-2-yl]methyl]-1-oxo-phthalazin-2-yl]acetic acid] |
| – | 1840 nM | 0.0259 µM | – | 0.00176 µM | 19800 nM | O=C(O)Cn1nc(Cc2nc3cc(OCC4CC4)c(C(F)(F)F)cc3[nH]2)c2ccccc2c1=O [Compound 123, 2-[4-[[5-(cyclopropylmethoxy)-6-(trifluoromethyl)-1H-benzimidazol-2-yl]methyl]-1-oxo-phthalazin-2-yl]acetic acid] |
| – | 13200 nM | 0.446 µM | – | 0.0666 µM | 19800 nM | O=C(O)Cn1nc(Cc2nc3cc(OCC4CC4)c(F)cc3[nH]2)c2ccccc2c1=O [Compound 124, 2-[4-[[5-(cyclopropylmethoxy)-6-fluoro-1H-benzimidazol-2-yl]methyl]-1-oxo-phthalazin-2-yl]acetic acid] |
| – | ≥ 19800 nM | 0.0449 µM | 30 nM | 0.0231 µM | 19800 nM | N#Cc1cc2nc(Cc3nn(CC(=O)N4CCOCC4)c(=O)c4ccccc34)[nH]c2cc1OCC(F)F [Compound 171, 6-(2,2-difluoroethoxy)-2-[[3-(2-morpholino-2-oxo-ethyl)-4-oxo-phthalazin-1-yl]methyl]-1H-benzimidazole-5-carbonitrile] |
| 3930 nM | ≥ 19800 nM | 15.6 µM | – | 3.32 µM | 19800 nM | N#Cc1cc2[nH]c(Cc3nn(CC4CCCN4)c(=O)c4ccccc34)nc2cc1OCC(F)F (stereo not shown) [compound 1, 6-(2,2-difluoro-ethoxy)-2-[[4-oxo-3-(pyrrolidin-2-ylmethyl)-phthalazin-1-yl]-methyl]-3H-benzimidazole-5-carbonitrile] |
| – | ≥ 19800 nM | 0.0192 µM | – | 0.00164 µM | 19800 nM | CC(C(=O)O)c1nn(Cc2cn3cc(OCC4CC4)c(Cl)cc3n2)c2ccccc2c1=O (stereo not shown) [compound 4, 2-[1-[[7-chloro-6-(cyclopropyl-methoxy)imidazo-[1,2-a]pyridin-2-yl]methyl]-4-oxo-cinnolin-3-yl]propanoic acid] |
| – | 8810 nM | 0.211 µM | – | 0.00302 µM | 19800 nM | C[C@H](C(=O)O)n1nc(Cn2cc3cc(OCC4CC4)c(Cl)cc3n2)c2ccccc2c1=O [compound 17, ((2R)-2-[4-[[6-chloro-5-(cyclo-propylmethoxy)-indazol-2-yl]-methyl]-1-oxo-phthalazin-2-yl]-propanoic acid)] |
| – | ≥ 19800 nM | 22.5 µM | – | 0.21 µM | 19800 nM | C[C@@H](C(=O)O)n1nc(Cn2cc3cc(OCC4CC4)c(Cl)cc3n2)c2ccccc2c1=O [compound 18, (2S)-2-[4-[[6-chloro-5-(cyclo-propylmethoxy)-indazol-2-yl]-methyl]-1-oxo-phthalazin-2-yl]propanoic acid] |
| – | 19900 nM | 0.0182 µM | – | 0.00129 µM | 19900 nM | C[C@H](C(=O)O)c1nn(Cc2cn3cc(OCC4CC4)c(Cl)cc3n2)c2ccccc2c1=O [compound 19, (2S)-2-[1-[[7-chloro-6-(cyclo-propylmethoxy)-imidazo[1,2-a]-pyridin-2-yl]-methyl]-4-oxo-cinnolin-3-yl]-propanoic acid] |
| – | ≥ 19800 nM | 3.33 µM | – | 0.134 µM | 19800 nM | C[C@@H](C(=O)O)c1nn(Cc2cn3cc(OCC4CC4)c(Cl)cc3n2)c2ccccc2c1=O [compound 20, (2R)-2-[1-[[7-chloro-6-(cyclo-propylmethoxy)-imidazo[1,2-a]pyridin-2-yl]-methyl]-4-oxo-cinnolin-3-yl]-propanoic acid] |
